Among the data in US7067519B2 (priority 2002, dated 2006) are IC50 values, retold here.

Assay [1] has as its target T1, human orexin-1 receptor (Homo sapiens, UniProt O43613).
T1 construct: expressed in transfected cells; host or cells: CHO cells (G418 selection)
T1 sequence (O43613 1-425): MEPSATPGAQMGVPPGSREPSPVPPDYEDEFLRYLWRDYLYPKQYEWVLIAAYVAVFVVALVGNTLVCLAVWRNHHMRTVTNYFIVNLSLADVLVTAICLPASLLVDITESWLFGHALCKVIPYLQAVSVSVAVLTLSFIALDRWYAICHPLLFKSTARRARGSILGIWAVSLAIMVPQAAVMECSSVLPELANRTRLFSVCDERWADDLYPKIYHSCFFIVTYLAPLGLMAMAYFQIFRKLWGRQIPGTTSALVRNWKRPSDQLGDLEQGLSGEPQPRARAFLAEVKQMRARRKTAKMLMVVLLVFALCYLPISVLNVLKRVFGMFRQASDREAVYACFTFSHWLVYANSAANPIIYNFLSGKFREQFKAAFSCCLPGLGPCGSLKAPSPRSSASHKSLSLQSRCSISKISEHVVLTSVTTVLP
Briefly: Intracellular calcium measurement (FLIPR), OX1 receptor antagonistic activity. The conditions noted are these: CHO cells expressing human orexin-1 receptor, agonist 10 nM human orexin-A, fluo-3 calcium. The class given is cell-based. How it is done: (§1) Determination of OX1 and OX2 Receptor Antagonistic Activities
(§2) The OX1 and OX2 receptor antagonistic activity of the compounds of formula (I) was determined in accordance with the following experimental method.
(§3) Intracellular Calcium Measurements
(§4) Chinese hamster ovary (CHO) cells expressing the human orexin-1 receptor or the human orexin-2 receptor, were grown in culture medium (Ham F-12 with L-Glutamine) containing 300 μg/ml G418, 100 U/ml penicillin, 100 μg/ml streptomycin and 10% inactivated foetal calf serum (FCS).
(§5) The cells were seeded at 80'000 cells/well into 96-well black clear bottom sterile plates (Costar) which had been precoated with 1% gelatine in Hanks' Balanced Salt Solution (HBSS). All reagents were from Gibco BRL.
(§6) The seeded plates were incubated overnight at 37° C. in 5% CO2.
(§7) Human orexin-A as an agonist was prepared as 1 mM stock solution in methanol:water (1:1), diluted in HBSS containing 0.1% bovine serum albumin (BSA) and 2 mM HEPES for use in the assay at a final concentration of 10 nM.
(§8) Antagonists were prepared as 10 mM stock solution in DMSO, then diluted in 96-well plates, first in DMSO, then in HBSS containing 0.1% bovine serum albumin (BSA) and 2 mM HEPES.
(§9) On the day of the assay, 100 μl of loading medium (HBSS containing 1% FCS, 2 mM HEPES, 5 mM probenecid (Sigma) and 3 μM of the fluorescent calcium indicator fluo-3 AM (1 mM stock solution in DMSO with 10% pluronic acid) (Molecular Probes) was added to each well.
(§10) The 96-well plates were incubated for 60 min at 37° C. in 5% CO2. The loading solution was then aspirated and cells were washed 3 times with 200 μl HBSS containing 2.5 mM probenecid, 0.1% BSA, 2 mM HEPES. 100 μl of that same buffer was left in each well. Within the Fluorescent Imaging Plate Reader (FLIPR, Molecular Devices), antagonists were added to the plate in a volume of 50 μl, incubated for 20 min and finally 100 μl of
(§11) agonist was added. Fluorescence was measured for each well at 1 second intervals, and the height of each fluorescence peak was compared to the height of the fluorescence peak induced by 10 nM orexin-A with buffer in place of antagonist. For each antagonist, IC50 value (the concentration of compound needed to inhibit 50% of the agonistic response) was determined.

In assay [2] the target is T2, human orexin-2 receptor (Homo sapiens, UniProt O43614).
T2 construct: expressed in transfected cells; host or cells: CHO cells (G418 selection)
T2 sequence (O43614 1-444): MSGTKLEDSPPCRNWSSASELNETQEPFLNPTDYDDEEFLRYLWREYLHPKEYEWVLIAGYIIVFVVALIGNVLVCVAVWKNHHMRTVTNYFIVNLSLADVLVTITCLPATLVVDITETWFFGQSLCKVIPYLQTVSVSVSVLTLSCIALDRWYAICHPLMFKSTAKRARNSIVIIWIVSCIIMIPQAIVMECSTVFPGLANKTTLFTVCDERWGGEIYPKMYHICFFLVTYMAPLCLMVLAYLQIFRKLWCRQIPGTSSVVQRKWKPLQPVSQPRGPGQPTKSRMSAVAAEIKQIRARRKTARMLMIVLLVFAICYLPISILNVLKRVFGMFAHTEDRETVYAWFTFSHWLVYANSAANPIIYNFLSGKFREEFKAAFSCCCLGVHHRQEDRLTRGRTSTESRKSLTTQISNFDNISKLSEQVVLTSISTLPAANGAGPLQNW
Description: Intracellular calcium measurement (FLIPR), OX2 receptor antagonistic activity. Conditions: CHO cells expressing human orexin-2 receptor, agonist 10 nM human orexin-A, fluo-3 calcium. The assay is classed as cell-based. The procedure:
as §1, §2, §3, §4, §5, §6, §7, §8, §9, §10, §11
(In general: Calcium flux is commonly read through the fluorescence of an indicator in the cells.)

As usually defined, the IC50 is the point on the concentration scale where inhibition reaches its midpoint. Take `CCc1ccccc1NC(=O)N(C(C)c1ccccc1)C1CCCn2c1nc1cc(F)c(F)cc1c2=O` (stereo not shown) [Example 30, 1-(2,3-Difluoro-11-oxo-6,8,9,11-tetrahydro-7H-pyrido[2,1-b]quinazolin-6-yl)-3-(2-ethyl-phenyl)-1-(1-phenyl-ethyl)-urea]: the values for the IC50 in assay [1] and in assay [2] were 261 nM and 16 nM, respectively.

Turning to `CC(c1ccccc1)N(C(=O)Nc1ccccc1OC(F)(F)F)C1CCn2c1nc1cc(F)ccc1c2=O` (stereo not shown) [Example 7, 1-(6-Fluoro-9-oxo-1,2,3,9-tetrahydro-pyrrolo[2,1-b]quinazolin-3-yl)-1-(1-phenyl-ethyl)-3-(2-trifluoromethoxy-phenyl)-urea], the IC50 in assay [1] was 2400 nM; in assay [2], 27 nM.

As for `CCCc1ccccc1NC(=O)N(C(C)c1ccccc1)C1CCCn2c1nc1cc(F)ccc1c2=O` (stereo not shown) [Example 33, 1-(3-Fluoro-11-oxo-6,8,9,11-tetrahydro-7H-pyrido[2,1-b]quinazolin-6-yl)-1-(1-phenyl-ethyl)-3-(2-n-propyl-phenyl)-urea], the figures for the IC50 in assay [1] and in assay [2] were 127 nM and 18 nM, respectively.

Regarding `CCCc1ccccc1NC(=O)N(C(C)c1ccccc1)C1CCn2c1nc1cccc(Cl)c1c2=O` (stereo not shown) [Example 44, 1-(8-Chloro-9-oxo-1,2,3,9-tetrahydro-pyrrolo[2,1-b]quinazolin-3-yl)-1-(1-phenyl-ethyl)-3-(2-n-propyl-phenyl)-urea], the values for the IC50 in assay [1] and in assay [2] were 67 nM and 27 nM, respectively.

As to `CCCc1ccccc1NC(=O)N(C1CCn2c1nc1cccc(C(F)(F)F)c1c2=O)[C@@H](C)c1ccccc1` (stereo partly drawn) [Example 50, 1-(9-Oxo-8-trifluoromethyl-1,2,3,9-tetrahydro-pyrrolo[2,1-b]quinazolin-3-yl)-1-((S)-1-phenyl-ethyl)-3-(2-n-propyl-phenyl)-urea], the IC50 was found to be 14 nM in assay [1] and 18 nM in assay [2].

On to `CC(c1ccccc1)N(C(=O)Nc1ccccc1OC(F)(F)F)C1CCn2c1nc1cccc(Cl)c1c2=O` (stereo not shown) [Example 40], for which the figures for the IC50 in assay [1] and in assay [2] were 37 nM and 14 nM, respectively.

As to `CCOc1ccccc1NC(=O)N(C(C)c1ccccc1)C1CCn2c1nc1ccccc1c2=O` (stereo not shown) [Example 3, 3-(2-Ethoxy-phenyl)-1-(9-oxo-1,2,3,9-tetrahydro-pyrrolo[2,1-b]quinazolin-3-yl)-1-(1-phenyl-ethyl)-urea], the IC50 in assay [1] was 115 nM; in assay [2] it was 79 nM.

Turning to `C[C@@H](c1ccccc1)N(C(=O)Nc1ccccc1OC(F)(F)F)C1CCn2c1nc1cccc(C(F)(F)F)c1c2=O` (stereo partly drawn) [Example 49, 1-(9-Oxo-8-trifluoromethyl-1,2,3,9-tetrahydro-pyrrolo[2,1-b]quinazolin-3-yl)-1-((S)-1-phenyl-ethyl)-3-(2-trifluoromethoxy-phenyl)-urea], the IC50 in assay [1] was found to be 12 nM; in assay [2], 16 nM.

Take `CCCc1ccccc1NC(=O)N(C(C)c1ccccc1)C1CCCn2c1nc1cc(F)c(F)cc1c2=O` (stereo not shown) [Example 28, 1-(2,3-Difluoro-11-oxo-6,8,9,11-tetrahydro-7H-pyrido[2,1-b]quinazolin-6-yl)-1-(1-phenyl-ethyl)-3-(2-n-propyl-phenyl)-urea]: the IC50 came out at 153 nM in assay [1] and 17 nM in assay [2].

As for `CCc1ccccc1NC(=O)N(C1CCn2c1nc1cccc(C(F)(F)F)c1c2=O)[C@@H](C)c1ccccc1` (stereo partly drawn) [Example 51, 3-(2-Ethyl-phenyl)-1-(9-oxo-8-trifluoromethyl-1,2,3,9-tetrahydro-pyrrolo[2,1-b]quinazolin-3-yl)-1-((S)-1-phenyl-ethyl)-urea], the IC50 came out at 28 nM in assay [1] and 21 nM in assay [2].

As for `CC(c1ccccc1)N(C(=O)Nc1ccccc1-c1ccccc1)C1CCn2c1nc1cccc(Cl)c1c2=O` (stereo not shown) [Example 41, 3-Biphenyl-2-yl-1-(8-chloro-9-oxo-1,2,3,9-tetrahydro-pyrrolo[2,1-b]quinazolin-3-yl)-1-(1-phenyl-ethyl)-urea], the IC50 in assay [1] was 52 nM; in assay [2] it was 14 nM.
